Values after ≈ are worked out from the molar mass of the structure shown. Active and inactive are the calls of the source. The rule behind the calls is not given here.
Columns and labels:
[1] = AUC (0 to infinity) in Cynomolgus monkey at 1 mg/kg, iv; format: ADME, organism-based, Macaca fascicularis; settings: in vivo
[2] = biological target: T1, Potassium channel subfamily K member 13 (Homo sapiens, UniProt Q9HB14); assay: Inhibition of human KCNK13 transfected in HEK293 cells; format: cell-based
T1 sequence (Q9HB14 whole entry): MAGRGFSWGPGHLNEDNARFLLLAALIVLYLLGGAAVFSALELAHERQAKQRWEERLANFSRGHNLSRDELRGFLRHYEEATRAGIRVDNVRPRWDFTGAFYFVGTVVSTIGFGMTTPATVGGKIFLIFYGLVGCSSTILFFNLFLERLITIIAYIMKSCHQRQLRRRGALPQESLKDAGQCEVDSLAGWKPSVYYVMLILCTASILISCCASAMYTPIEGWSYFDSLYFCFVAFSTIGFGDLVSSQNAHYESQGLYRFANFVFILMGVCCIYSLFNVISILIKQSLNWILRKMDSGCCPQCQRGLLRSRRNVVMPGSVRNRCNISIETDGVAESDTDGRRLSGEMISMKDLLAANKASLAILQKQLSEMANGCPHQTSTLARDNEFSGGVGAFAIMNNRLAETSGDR

[3] = Ratio of unbound drug concentration in brain to plasma C57BL/6 mouse at 10 mg/kg, po measured after 4 hrs by LC-MS/MS analysis; format: ADME, organism-based; settings: brain and plasma, read-out: K(p,uu,brain)
[4] = Tmax in Sprague-Dawley rat at 3 mg/kg, po; format: ADME, organism-based; settings: in vivo
[5] = Tmax in Beagle dog at 10 mg/kg, po; format: ADME, organism-based, Canis lupus familiaris; settings: in vivo
[6] = Metabolic stability in human liver microsomes assessed as intrinsic clearance; format: ADME, Microsome; settings: read-out: CLH
[7] = C0 in Cynomolgus monkey at 1 mg/kg, iv; format: ADME, organism-based, Macaca fascicularis; settings: in vivo
[8] = biological target: Voltage-gated inwardly rectifying potassium channel KCNH2 (Homo sapiens, UniProt Q12809); assay: Inhibition of hERG; format: toxicity
[9] = Volume of distribution at steady state in Beagle dog at 1 mg/kg, iv; format: ADME, organism-based, Canis lupus familiaris; settings: in vivo, read-out: Vdss
[10] = Half life in Beagle dog at 10 mg/kg, po; format: ADME, organism-based, Canis lupus familiaris; settings: in vivo
[11] = biological target: T2, Potassium channel subfamily K member 13 (Homo sapiens) (UniProt Q9HB14); assay: Inhibition of human KCNK13 transfected in HEK293 cells assessed as reduction in thallium influx incubated for 15 mins in dark by FLIPR assay relative to control; format: cell-based
T2 sequence (whole entry): T1 sequence (Q9HB14 whole entry)

[12] = Metabolic stability in rat liver microsomes assessed as intrinsic clearance; format: ADME, Microsome; settings: read-out: CLH
[13] = Protein binding in mouse brain assessed as unbound fraction by equilibrium dialysis; format: ADME, tissue-based
[14] = Protein binding in mouse plasma assessed as unbound fraction by equilibrium dialysis; format: ADME, cell-free
[15] = species on record: Mus musculus; assay: Effect on IL-1beta release in LPS-induced C57Bl6 mouse hippocampus upto 5 uM treated for 1 hr by ELISA; format: functional, tissue-based
[16] = biological target: NACHT, LRR and PYD domains-containing protein 3 (Mus musculus) (UniProt Q8R4B8); assay: Inhibition of NLRP3 inflammasome-mediated IL-1beta release in LPS/ATP-induced C57Bl6 mouse hippocampus at 1 uM pretreated for 1 hr followed by ATP addition measured after 3 hrs by ELISA; format: tissue-based; settings: time 4.0 hrs
[17] = Half life in Cynomolgus monkey at 1 mg/kg, iv; format: ADME, organism-based, Macaca fascicularis; settings: in vivo
[18] = biological target: Voltage-dependent L-type calcium channel subunit alpha-1C (Homo sapiens, UniProt Q13936); assay: Inhibition of CaV1.2 (unknown origin); format: toxicity
[19] = Cmax in Sprague-Dawley rat at 3 mg/kg, po; format: ADME, organism-based; settings: in vivo
[20] = biological target: T3, Potassium channel subfamily K member 13 (Mus musculus, UniProt Q8R1P5); assay: Inhibition of mouse KCNK13 transfected in HEK293 cells assessed as reduction in thallium influx incubated for 15 mins in dark by FLIPR assay; format: cell-based
T3 sequence (Q8R1P5 whole entry): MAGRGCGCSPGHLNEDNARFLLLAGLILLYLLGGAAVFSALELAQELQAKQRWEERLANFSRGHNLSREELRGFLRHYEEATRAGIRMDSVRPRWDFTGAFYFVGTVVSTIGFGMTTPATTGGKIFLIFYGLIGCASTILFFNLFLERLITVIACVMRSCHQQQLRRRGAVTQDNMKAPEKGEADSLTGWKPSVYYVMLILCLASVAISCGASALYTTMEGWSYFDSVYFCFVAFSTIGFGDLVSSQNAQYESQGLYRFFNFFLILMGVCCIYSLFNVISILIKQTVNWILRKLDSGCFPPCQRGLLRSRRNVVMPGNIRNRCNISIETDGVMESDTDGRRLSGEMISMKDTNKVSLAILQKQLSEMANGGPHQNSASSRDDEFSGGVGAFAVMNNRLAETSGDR

[21] = biological target: NACHT, LRR and PYD domains-containing protein 3 (Mus musculus) (UniProt Q8R4B8); assay: Inhibition of NLRP3 inflammasome-mediated IL-1beta release in LPS-primed neonatal C57BL/6 P1-4 mouse microglia pretreated for 30 mins followed by media removal and compound re-addition with K+-free buffer measured after 2 hrs by ELISA relative to control; format: cell-based; settings: time 150.0 min
[22] = AUC (0 to infinity) in Beagle dog at 1 mg/kg, iv; format: ADME, organism-based, Canis lupus familiaris; settings: in vivo
[23] = Volume of distribution at steady state in Sprague-Dawley rat at 0.5 mg/kg, iv; format: ADME, organism-based; settings: in vivo, read-out: Vdss
[24] = Tmax in Cynomolgus monkey at 3 mg/kg, po; format: ADME, organism-based, Macaca fascicularis; settings: in vivo
[25] = biological target: T3, Potassium channel subfamily K member 13; assay: Inhibition of mouse KCNK13 transfected in HEK293 cells; format: cell-based
[26] = Clearance in Sprague-Dawley rat at 0.5 mg/kg, iv; format: ADME, organism-based; settings: in vivo
[27] = C0 in Beagle dog at 1 mg/kg, iv; format: ADME, organism-based, Canis lupus familiaris; settings: in vivo
[28] = Oral bioavailability in Sprague-Dawley rat at 3 mg/kg; format: ADME, organism-based; settings: in vivo
[29] = Kinetic aqueous solubility of compound at pH 7.4; format: physicochemical; settings: buffer, read-out: Kinetic_solubility
[30] = tested on: KCNK2 (Homo sapiens); assay: Inhibition of recombinant human KCNK2 transfected in HEK293 cells assessed as reduction in thallium influx at 30 uM incubated for 15 mins in dark by FLIPR assay relative to control
[31] = Cmax in Beagle dog at 10 mg/kg, po; format: ADME, organism-based, Canis lupus familiaris; settings: in vivo
[32] = Ratio of drug concentration in brain to plasma C57BL/6 mouse at 10 mg/kg, po measured after 4 hrs by LC-MS/MS analysis; format: ADME, organism-based; settings: brain and plasma, read-out: BPR
[33] = Unbound drug concentration in C57BL/6 mouse plasma at 10 mg/kg, po measured after 4 hrs by LC-MS/MS analysis; format: ADME, organism-based; settings: in vivo
[34] = biological target: Sodium channel protein type 5 subunit alpha (Homo sapiens, UniProt Q14524); assay: Inhibition of NaV1.5 (unknown origin); format: toxicity
[35] = Clearance in Beagle dog at 1 mg/kg, iv; format: ADME, organism-based, Canis lupus familiaris; settings: in vivo
[36] = AUC (0 to infinity) in Sprague-Dawley rat at 3 mg/kg, po; format: ADME, organism-based; settings: in vivo
[37] = AUC (0 to infinity) in Cynomolgus monkey at 3 mg/kg, po; format: ADME, organism-based, Macaca fascicularis; settings: in vivo
[38] = Half life in Sprague-Dawley rat at 0.5 mg/kg, iv; format: ADME, organism-based; settings: in vivo
[39] = Metabolic stability in mouse liver microsomes assessed as intrinsic clearance; format: ADME, Microsome; settings: read-out: CLH
[40] = Cmax in Cynomolgus monkey at 3 mg/kg, po; format: ADME, organism-based, Macaca fascicularis; settings: in vivo

Chain of NACHT, LRR and PYD domains-containing protein 3 (Mus musculus) (Q8R4B8 whole entry, the tested form may be a part): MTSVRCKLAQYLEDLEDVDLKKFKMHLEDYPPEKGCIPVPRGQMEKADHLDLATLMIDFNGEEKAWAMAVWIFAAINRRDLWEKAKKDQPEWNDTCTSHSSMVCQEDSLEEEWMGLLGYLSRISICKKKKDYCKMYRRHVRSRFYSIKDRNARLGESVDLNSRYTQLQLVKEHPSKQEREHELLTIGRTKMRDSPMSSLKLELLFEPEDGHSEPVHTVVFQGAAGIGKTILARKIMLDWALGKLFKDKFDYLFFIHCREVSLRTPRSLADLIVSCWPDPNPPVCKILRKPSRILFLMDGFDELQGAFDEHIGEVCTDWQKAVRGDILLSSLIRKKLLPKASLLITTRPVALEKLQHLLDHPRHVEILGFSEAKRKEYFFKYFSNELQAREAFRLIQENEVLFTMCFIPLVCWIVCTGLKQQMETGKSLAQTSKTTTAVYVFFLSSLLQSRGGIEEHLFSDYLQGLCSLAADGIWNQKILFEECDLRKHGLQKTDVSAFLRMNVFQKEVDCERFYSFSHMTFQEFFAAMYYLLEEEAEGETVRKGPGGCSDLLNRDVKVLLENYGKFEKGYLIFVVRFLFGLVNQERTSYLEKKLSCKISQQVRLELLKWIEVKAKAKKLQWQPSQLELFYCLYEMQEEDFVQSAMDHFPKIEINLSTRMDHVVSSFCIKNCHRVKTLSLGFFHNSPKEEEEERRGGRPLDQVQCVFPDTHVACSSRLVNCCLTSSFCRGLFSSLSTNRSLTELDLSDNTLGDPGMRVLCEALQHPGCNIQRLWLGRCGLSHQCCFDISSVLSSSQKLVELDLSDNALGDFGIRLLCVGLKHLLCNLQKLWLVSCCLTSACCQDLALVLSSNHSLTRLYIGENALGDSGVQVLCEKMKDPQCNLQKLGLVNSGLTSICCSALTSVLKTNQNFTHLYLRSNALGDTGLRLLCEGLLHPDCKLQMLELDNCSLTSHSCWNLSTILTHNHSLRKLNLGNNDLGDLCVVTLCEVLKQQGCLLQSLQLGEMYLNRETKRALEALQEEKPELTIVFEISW
Chain of Voltage-dependent L-type calcium channel subunit alpha-1C (Q13936 whole entry): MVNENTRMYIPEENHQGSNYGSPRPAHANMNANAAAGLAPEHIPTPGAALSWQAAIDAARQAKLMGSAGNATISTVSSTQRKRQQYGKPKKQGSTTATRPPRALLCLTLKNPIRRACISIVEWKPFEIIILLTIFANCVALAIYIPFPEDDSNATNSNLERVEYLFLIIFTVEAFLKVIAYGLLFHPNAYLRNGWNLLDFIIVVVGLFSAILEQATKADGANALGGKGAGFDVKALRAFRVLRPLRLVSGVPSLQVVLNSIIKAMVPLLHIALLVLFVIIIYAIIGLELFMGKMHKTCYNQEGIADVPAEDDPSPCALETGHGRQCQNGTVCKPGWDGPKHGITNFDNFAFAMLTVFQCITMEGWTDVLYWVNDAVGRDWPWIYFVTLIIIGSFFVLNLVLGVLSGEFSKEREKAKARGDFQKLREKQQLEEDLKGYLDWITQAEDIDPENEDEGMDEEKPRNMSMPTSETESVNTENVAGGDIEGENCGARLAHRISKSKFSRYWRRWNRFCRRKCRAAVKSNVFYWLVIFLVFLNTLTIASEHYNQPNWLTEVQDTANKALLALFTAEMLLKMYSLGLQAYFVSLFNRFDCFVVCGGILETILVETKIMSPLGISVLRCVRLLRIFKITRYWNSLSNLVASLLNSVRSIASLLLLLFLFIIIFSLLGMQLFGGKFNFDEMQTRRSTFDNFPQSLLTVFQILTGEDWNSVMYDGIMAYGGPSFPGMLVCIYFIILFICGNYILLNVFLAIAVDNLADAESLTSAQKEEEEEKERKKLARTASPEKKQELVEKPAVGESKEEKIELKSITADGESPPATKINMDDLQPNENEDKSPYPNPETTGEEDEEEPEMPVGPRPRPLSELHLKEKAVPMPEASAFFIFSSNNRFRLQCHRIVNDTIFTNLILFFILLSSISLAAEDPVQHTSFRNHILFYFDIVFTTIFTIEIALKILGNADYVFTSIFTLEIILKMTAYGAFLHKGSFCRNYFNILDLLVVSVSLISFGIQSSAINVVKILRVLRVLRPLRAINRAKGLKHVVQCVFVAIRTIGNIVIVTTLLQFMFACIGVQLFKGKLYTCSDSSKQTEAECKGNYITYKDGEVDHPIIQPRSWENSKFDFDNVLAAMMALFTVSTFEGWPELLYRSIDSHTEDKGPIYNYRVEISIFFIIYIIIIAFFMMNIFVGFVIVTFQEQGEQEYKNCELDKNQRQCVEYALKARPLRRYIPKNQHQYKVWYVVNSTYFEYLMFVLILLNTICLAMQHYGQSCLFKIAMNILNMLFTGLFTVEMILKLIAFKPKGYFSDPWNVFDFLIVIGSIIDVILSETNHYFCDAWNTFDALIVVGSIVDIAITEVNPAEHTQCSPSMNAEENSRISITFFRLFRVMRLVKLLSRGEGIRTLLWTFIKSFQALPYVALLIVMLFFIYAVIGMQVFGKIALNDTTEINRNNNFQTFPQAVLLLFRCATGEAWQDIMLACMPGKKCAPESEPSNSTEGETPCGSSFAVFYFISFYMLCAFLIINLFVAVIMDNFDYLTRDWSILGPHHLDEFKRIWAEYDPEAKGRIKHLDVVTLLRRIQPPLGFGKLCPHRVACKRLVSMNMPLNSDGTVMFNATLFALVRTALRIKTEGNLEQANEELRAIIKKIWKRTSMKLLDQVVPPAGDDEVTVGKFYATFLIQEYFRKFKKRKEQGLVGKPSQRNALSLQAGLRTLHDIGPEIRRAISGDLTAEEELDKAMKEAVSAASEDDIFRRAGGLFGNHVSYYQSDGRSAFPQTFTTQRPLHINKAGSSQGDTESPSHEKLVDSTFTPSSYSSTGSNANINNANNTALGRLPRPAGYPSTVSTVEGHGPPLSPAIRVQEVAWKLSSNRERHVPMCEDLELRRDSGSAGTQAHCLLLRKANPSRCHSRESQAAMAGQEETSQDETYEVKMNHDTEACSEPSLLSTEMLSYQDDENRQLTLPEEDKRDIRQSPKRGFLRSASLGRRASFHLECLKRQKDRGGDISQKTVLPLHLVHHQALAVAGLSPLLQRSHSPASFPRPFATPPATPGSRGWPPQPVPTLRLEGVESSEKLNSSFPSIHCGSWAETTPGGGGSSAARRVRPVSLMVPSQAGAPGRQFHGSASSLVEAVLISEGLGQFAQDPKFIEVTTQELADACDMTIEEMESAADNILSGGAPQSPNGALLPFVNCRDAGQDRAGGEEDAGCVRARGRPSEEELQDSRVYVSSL
Chain of Voltage-gated inwardly rectifying potassium channel KCNH2 (Q12809 whole entry): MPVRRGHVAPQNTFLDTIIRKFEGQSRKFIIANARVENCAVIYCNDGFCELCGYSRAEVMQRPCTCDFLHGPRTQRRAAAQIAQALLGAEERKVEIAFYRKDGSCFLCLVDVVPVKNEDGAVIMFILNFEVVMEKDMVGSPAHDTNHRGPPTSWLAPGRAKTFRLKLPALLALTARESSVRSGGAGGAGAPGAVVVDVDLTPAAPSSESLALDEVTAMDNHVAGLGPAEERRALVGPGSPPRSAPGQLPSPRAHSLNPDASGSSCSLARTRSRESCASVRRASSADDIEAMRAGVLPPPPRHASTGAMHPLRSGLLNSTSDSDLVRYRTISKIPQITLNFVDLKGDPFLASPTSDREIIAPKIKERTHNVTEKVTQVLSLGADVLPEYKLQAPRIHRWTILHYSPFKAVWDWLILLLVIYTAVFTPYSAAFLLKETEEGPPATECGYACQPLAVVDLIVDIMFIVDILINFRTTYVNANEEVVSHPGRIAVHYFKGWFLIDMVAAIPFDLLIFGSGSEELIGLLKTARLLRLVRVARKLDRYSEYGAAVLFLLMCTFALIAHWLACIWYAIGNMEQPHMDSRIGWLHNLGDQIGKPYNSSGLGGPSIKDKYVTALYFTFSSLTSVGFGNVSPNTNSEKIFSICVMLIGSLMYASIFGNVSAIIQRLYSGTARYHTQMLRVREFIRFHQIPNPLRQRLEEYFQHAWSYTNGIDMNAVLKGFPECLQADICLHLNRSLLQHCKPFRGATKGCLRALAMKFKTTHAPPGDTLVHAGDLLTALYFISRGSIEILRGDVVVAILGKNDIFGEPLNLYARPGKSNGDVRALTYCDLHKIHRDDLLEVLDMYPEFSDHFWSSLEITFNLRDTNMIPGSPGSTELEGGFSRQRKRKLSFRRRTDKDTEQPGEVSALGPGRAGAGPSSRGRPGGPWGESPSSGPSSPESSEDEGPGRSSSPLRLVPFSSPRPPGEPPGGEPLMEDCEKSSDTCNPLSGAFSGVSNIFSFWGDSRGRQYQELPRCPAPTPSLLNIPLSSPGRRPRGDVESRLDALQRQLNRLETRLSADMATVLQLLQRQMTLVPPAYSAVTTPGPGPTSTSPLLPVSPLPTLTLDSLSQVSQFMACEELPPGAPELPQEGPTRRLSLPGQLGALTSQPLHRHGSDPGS

Structure (SMILES): Nc1nonc1-c1nc2cccc(F)c2n1Cc1cccnn1
- AUC(0-inf) [1]: 782 ng·h/mL
- IC50 [2]: 41 nM
- Kp uu at 4 h [3]: 0.66
- Tmax [4]: 1 h
- Tmax [5]: 1.25 h
- microsomal CLint [6]: < 9.6 µL/min/mg
- C0 [7]: 896 ng/mL
- inhibition (INH) [8]: Not Active
- Vd [9]: 1.42 L/kg
- half-life [10]: 2.6 h
- Imax [11]: 100%
- microsomal CLint [12]: 9.9 µL/min/mg
- fraction unbound [13]: 0.136
- fraction unbound [14]: 0.173
- Activity [15]: inactive
- inhibition [16]: Active
- half-life [17]: 1.1 h
- inhibition (INH) [18]: Not Active
- Cmax [19]: 468 ng/mL
- IC50 [20]: 28 nM
- Imax [21]: 59.1%
- AUC [22]: 438 ng·h/mL
- Vd [23]: 1.85 L/kg
- Tmax [24]: 1 h
- IC50 [25]: 28 nM
- clearance [26]: 35 mL/min/kg
- C0 [27]: 626 ng/mL
- bioavailability [28]: 87%
- solubility kinetic [29]: 94 µM (≈ 29.3 µg/mL)
- Imax [30]: 17.4%
- Cmax [31]: 241 ng/mL
- Kp at 4 h [32]: 0.84
- Cp(f) [33]: 372 nM
- inhibition (INH) [34]: Not Active
- clearance [35]: 38 mL/min/kg
- AUC(0-inf) [36]: 1240 ng·h/mL
- AUC(0-inf) [37]: 546 ng·h/mL
- half-life [38]: 1 h
- microsomal CLint [39]: < 9.6 µL/min/mg
- Cmax [40]: 165 ng/mL

— ChEMBL document CHEMBL5634193, “Discovery of CVN293, a Brain Permeable KCNK13 (THIK-1) Inhibitor Suitable for Clinical Assessment” (ACS Med Chem Lett, 2024)
